According to PubChem BioAssay AID1918995 (Molecular Pharmacology Branch, DTP, NCI, 2023):
Values joined by “and” are separate entries in the source; they are usually repeats but may differ in a detail not shown here. Identical values can stand only once.

Tested on: 324938-238-R-J1-PDC complex spheroid growth, % test/control
Test: Anticancer human tumor 324938-238-R-J1-PDC patient-derived bladder carcinoma cell line growth inhibition [AhR]
Settings: for viability, T/C: stronger effect = lower value
Procedure, shortened: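 Complex tumor spheroids co-cultured with HUVEC and human MSC stroma; AhR antagonists tested in combination with standard-of-care and investigational agents. Top concentration at or near clinical Cmax (else 10 microM), half-log dilutions; growth expressed as percent test/control.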

[1] = curve of first compound, second compound 0.1 µM
[2] = curve of first compound, second compound 0.316 µM
[3] = curve of first compound, second compound 1 µM
[4] = curve of first compound, second compound 3.16 µM
[5] = curve of first compound, second compound 10 µM
[6] = second compound 0.1 µM, first compound 0.0316 µM
[7] = second compound 0.1 µM, first compound 0.1 µM
[8] = second compound 0.1 µM, first compound 0.316 µM
[9] = second compound 0.1 µM, first compound 1 µM
[10] = second compound 0.1 µM, first compound 3.16 µM
[11] = second compound 0.1 µM, first compound 10 µM
[12] = second compound 0.316 µM, first compound 0.0316 µM
[13] = second compound 0.316 µM, first compound 0.1 µM
[14] = second compound 0.316 µM, first compound 0.316 µM
[15] = second compound 0.316 µM, first compound 1 µM
[16] = second compound 0.316 µM, first compound 3.16 µM
[17] = second compound 0.316 µM, first compound 10 µM
[18] = second compound 1 µM, first compound 0.0316 µM
[19] = second compound 1 µM, first compound 0.1 µM
[20] = second compound 1 µM, first compound 0.316 µM
[21] = second compound 1 µM, first compound 1 µM
[22] = second compound 1 µM, first compound 3.16 µM
[23] = second compound 1 µM, first compound 10 µM
[24] = second compound 3.16 µM, first compound 0.0316 µM
[25] = second compound 3.16 µM, first compound 0.1 µM
[26] = second compound 3.16 µM, first compound 0.316 µM
[27] = second compound 3.16 µM, first compound 1 µM
[28] = second compound 3.16 µM, first compound 3.16 µM
[29] = second compound 3.16 µM, first compound 10 µM
[30] = second compound 10 µM, first compound 0.0316 µM
[31] = second compound 10 µM, first compound 0.1 µM
[32] = second compound 10 µM, first compound 0.316 µM
[33] = second compound 10 µM, first compound 1 µM
[34] = second compound 10 µM, first compound 3.16 µM
[35] = second compound 10 µM, first compound 10 µM
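Further: spheroids exposed to agents for seven days before viability read.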

Row | IC50 [1] | IC50 [2] | IC50 [3] | IC50 [4] | IC50 [5] | SMILES | viability, T/C [6] | viability, T/C [7] | viability, T/C [8] | viability, T/C [9] | viability, T/C [10] | viability, T/C [11] | viability, T/C [12] | viability, T/C [13] | viability, T/C [14] | viability, T/C [15] | viability, T/C [16] | viability, T/C [17] | viability, T/C [18] | viability, T/C [19] | viability, T/C [20] | other results
1 | 2.23 µM | 1.74 µM | 3.83 µM | 2.75 µM | 3.09 µM | Nc1ccccc1NC(=O)c1ccc(CNC(=O)OCc2cccnc2)cc1 + Cc1ccccc1N=Nc1ccc(NC(=O)c2ccnn2C)c(C)c1 | 104% | 118% | 98.1% | 62.1% | 48.6% | 38.3% | 93.7% | 110% | 104% | 55.5% | 50.2% | 37.8% | 91.8% | 94.5% | 85.8% | viability, T/C [21]: 64.6%; viability, T/C [22]: 56%; viability, T/C [23]: 38%; viability, T/C [24]: 82.9%; viability, T/C [25]: 102%; viability, T/C [26]: 79.1%; viability, T/C [27]: 58.4%; viability, T/C [28]: 53.7%; viability, T/C [29]: 43.1%; viability, T/C [30]: 86.8%; viability, T/C [31]: 91.4%; viability, T/C [32]: 77.4%; viability, T/C [33]: 57.7%; viability, T/C [34]: 56.4%; viability, T/C [35]: 40.5%
2 | 3.83 µM | 2.54 µM | 3.99 µM | 3.25 µM | 2.71 µM | Nc1ccccc1NC(=O)c1ccc(CNC(=O)OCc2cccnc2)cc1 + CC(CO)NC(=O)c1cc(-c2ccc(Cl)cc2)nn(-c2cnn(C)c2)c1=O | 116% | 122% | 99.1% | 66.3% | 63.9% | 26.3% | 118% | 112% | 95.2% | 61.4% | 52.4% | 26.7% | 99.2% | 109% | 102% | viability, T/C [21]: 69.5%; viability, T/C [22]: 61.6%; viability, T/C [23]: 25.7%; viability, T/C [24]: 88%; viability, T/C [25]: 90.8%; viability, T/C [26]: 84.9%; viability, T/C [27]: 63.9%; viability, T/C [28]: 56.4%; viability, T/C [29]: 7.19%; viability, T/C [30]: 82.2%; viability, T/C [31]: 90.8%; viability, T/C [32]: 80.9%; viability, T/C [33]: 63.9%; viability, T/C [34]: 50%; viability, T/C [35]: 1.83%
3 | 3.65 µM | 3.63 µM | 3.03 µM | 3.75 µM | < 0.0316 µM | O=C(C=Cc1cccc(S(=O)(=O)Nc2ccccc2)c1)NO + Cc1cncc(-c2nc(NCCc3c[nH]c4ccccc34)c3ncn(C(C)C)c3n2)c1 | 121% | 130% | 95.4% | 104% | 53.5% | 1.77% | 101% | 106% | 95.3% | 92.7% | 56.2% | 2.06% | 112% | 122% | 96.5% | viability, T/C [21]: 95.2%; viability, T/C [22]: 46.6%; viability, T/C [23]: 3.32%; viability, T/C [24]: 133%; viability, T/C [25]: 109%; viability, T/C [26]: 125%; viability, T/C [27]: 87.7%; viability, T/C [28]: 60%; viability, T/C [29]: 0.96%; viability, T/C [30]: 9.41%; viability, T/C [31]: 28.3%; viability, T/C [32]: 40%; viability, T/C [33]: 63%; viability, T/C [34]: 61.8%; viability, T/C [35]: 0.41%
4 | – | – | – | – | – | Cn1ncnc1C1c2n[nH]c(=O)c3cc(F)cc(c23)NC1c1ccc(F)cc1 (configuration not stated) | – | – | – | – | – | – | – | – | – | – | – | – | – | – | – | viability, T/C (compound 0.000316 µM): 107% and 101% and 111%; viability, T/C (compound 0.001 µM): 100% and 105% and 98%; viability, T/C (compound 0.00316 µM): 92.3% and 101% and 90.6%; viability, T/C (compound 0.01 µM): 97.1% and 74.3% and 87.5%; viability, T/C (compound 0.0316 µM): 98% and 79.1% and 61.1%; viability, T/C (compound 0.1 µM): 89.5% and 65.1% and 46.1%; IC50 (curve of compound): > 0.1 µM and 0.0781 µM
